According to patent US20230165872A1, “COMBINATION OF BCMA-DIRECTED T CELL THERAPY AND AN IMMUNOMODULATORY COMPOUND” (Juno Therapeutics, Inc., priority 2020, published 2023):

Key:
Format in all cases: cell-based, human
RPMI-8226 target cells [1] = assay: Rescue: rechallenge of chronically stimulated anti-BCMA CAR T cells with RPMI-8226 in the presence of compound
Experimental: Anti-BCMA CAR-expressing T cells, produced as described in Example 1, were stimulated with 50 μg BCMA conjugated beads (diameter about 4.5 μm from a 50 μg/ml BCMA-conjugated bead composition) substantially as described in Example 3 to induce chronic stimulation (to produce hypofunctional, exhausted T cells). After the chronic stimulation, the CAR-T cells were rechallenged with RPMI-8226 target cells (labeled with NucLightRed as described in Example 2) at a 1:1 (effector:target) ratio in the presence of (rescued) with Compound A (iberdomide, (S)-3-[4-(4-morpholin-4-ylmethyl-benzyloxy)-1-oxo-1,3-dihydro-isoindol-2-yl]-piperidine-2,6-dione) (1 nM or 10 nM), Compound B ((S)-4-(4-(4-(((2-(2,6-dioxopiperidin-3-yl)-1-oxoisoindolin-4-yl)oxy)methyl)benzyl)piperazin-1-yl)-3-fluorobenzonitrile) (0.1 nM or 1 nM), or DMSO vehicle control.
Killing activity and cytokine production were assessed as described in Example 3.
(§1) Studies were undertaken to determine whether Compound A (iberdomide, (S)-3-[4-(4-morpholin-4-ylmethyl-benzyloxy)-1-oxo-1,3-dihydro-isoindol-2-yl]-piperidine-2,6-dione) rescued anti-BCMA CAR T cell function following chronic stimulation. To directly stimulate via CAR engagement to induce chronic stimulation of cells, anti-BCMA CAR T cells were stimulated with BCMA conjugated beads (diameter about 4.5 μm from a 50 μg/ml BCMA-conjugated bead composition, generated as described in Example 9) at a ratio of T cells to beads of 1:1. The cells were then incubated at 37° C., 5% CO2 for 7 days.
Cultures were incubated at 37° C., 5% CO2, and images were taken every 2 hours over 5-7 days with an Essen IncuCyte Zoom live-cell analysis system to track NucLightRed-positive target cells.

RPMI-8226 target cells [2] = assay: Rechallenge with RPMI-8226 after concurrent compound treatment during chronic stimulation (cytolysis, cytokines)
Experimental: Cryofrozen anti-BCMA CAR T cells, produced substantially as described in Example 1 and formulated at a 1:1 ratio of CD4+ and CD8^+ T cells, were thawed. To subject cells to chronic stimulation conditions, the anti-BCMA CAR+ T cells were stimulated with 50 μg BCMA conjugated beads (diameter about 4.5 μm from a 50 μg/ml BCMA-conjugated bead composition, generated as described in Example 2) at a ratio of T cells to beads of 1:1 in the presence or absence of Compound A (iberdomide, (S)-3-[4-(4-morpholin-4-ylmethyl-benzyloxy)-1-oxo-1,3-dihydro-isoindol-2-yl]-piperidine-2,6-dione) (1 nM or 10 nM), Compound B ((S)-4-(4-(4-(((2-(2,6-dioxopiperidin-3-yl)-1-oxoisoindolin-4-yl)oxy)methyl)benzyl)piperazin-1-yl)-3-fluorobenzonitrile) (0.1 nM or 1 nM), or DMSO vehicle control. The cells were then incubated at 37° C., 5% CO2 for 7 days.
CAR T cells that had been stimulated for 7 days with cultured with 50 μg BCMA-coated magnetic beads concurrently in the presence of the cell immunomodulatory compound were washed free of compound and cells were debeaded. The anti-BCMA CAR T cells that had been stimulated for 7 days with BCMA-conjugated beads in the presence of the compounds were co-cultured with RPMI-8226 target cells (labeled with NucLightRed as described in Example 2) at a 1:1 (effector:target) ratio. Killing activity was monitored over 200 hours by measuring NucLightRed (NLR)-positive target cells. The total cell number of NLR-expressing RPMI targets cells was determined by normalizing cell number over time to the number of cells at the initiation of the co-culture (t=0) for each respective condition.
For cytokine measurements, cell-free supernatants were collected from the cytolytic assay described above 24 hours after plating. Cytokine levels of IFNg, IL-2, and TNFalpha (TNFα) was measured in the supernatant.
Cryofrozen anti-BCMA CAR T cells, produced substantially as described in Example 1 and formulated at a 1:1 ratio of CD4+ and CD8+ T cells, were thawed. […] The cells were then incubated at 37° C., 5% CO2 for 7 days.
Cytolytic activity was assessed using OPM-2 and RPMI-8226 BCMA expressing target cells transduced with NucLight Red, a red fluorescent protein detectable by microscopy, to allow for measurement of target cell death. Anti-BCMA CAR T cells that had been stimulated for 7 days with BCMA-conjugated beads in the presence of the compounds were co-cultured with RPMI-8226 target cells at a 0.3:1 (effector:target) or 1:1 ratio. Cultures were incubated at 37° C., 5% CO2, and images were taken every 2 hours over 5-7 days with an Essen IncuCyte Zoom live-cell analysis system to track NucLightRed-positive target cells.
For cytokine measurements, cell-free supernatants were collected from the cytolytic assay described above 24 hours after plating. Cytokine levels were measured using IFNg, IL-2, and TNFalpha Meso Scale Discovery cytokine kit (Mesoscale) according to manufacturer instructions. The data was analyzed using GraphPad Prism to calculate absolute changes in cytokine relative to the DMSO vehicle control.

[3] = tested on: IMiD/CELMoD resistant cell line DF-15R; assay: Rescue: rechallenge of chronically stimulated anti-BCMA CAR T cells with DF-15R; details: DF-15R rechallenge after 7-day chronic stimulation
Experimental: as §1
To further elucidate the role of Compound A on the target cells compared to the CAR T cell intrinsic effects, the IMiD/CELMoD resistant cell line DF-15R was also used to rechallenge anti-BCMA CAR T cells that had been chronically stimulated for 7 days. Cytolytic activity and cytokine production following the rechallenge were assessed as described above.

O=C1CC[C@H](N2Cc3c(OCc4ccc(CN5CCOCC5)cc4)cccc3C2=O)C(=O)N1 [Compound A, (S)-3-[4-(4-morpholin-4-ylmethyl-benzyloxy)-1-oxo-1,3-dihydro-isoindol-2-yl]-piperidine-2,6-dione]
rescue of chronically activated CAR T cells (RPMI-8226 target cells [1]; Example 4: Compound A 1 or 10 nM, Compound B 0.1 or 1 nM during re-challenge): able to rescue chronically activated CAR T cells to improve functionality
cytolytic activity, compound present during re-challenge (RPMI-8226 target cells [1]; Example 8: E:T 0.3:1, Compound A 1 nm or 10 nM, versus no compound, FIG. 10A): improvement in cytolytic activity
production of IFN-gamma (RPMI-8226 target cells [1]; Example 8: supernatant at 24 hours, FIG. 10B): increased production
production of IL-2 (RPMI-8226 target cells [1]; Example 8: supernatant at 24 hours, FIG. 10C): increased production
production of TNF-alpha (RPMI-8226 target cells [1]; Example 8: supernatant at 24 hours, FIG. 10D): increased production
cytolytic activity after long-term stimulation in the presence of compound (RPMI-8226 target cells [2]; Example 7: E:T 0.3:1, lenalidomide 1000 nM, Compound A 1 or 10 nM, FIG. 9A): increased cytolytic activity
production of IFN-gamma (RPMI-8226 target cells [2]; Example 7: supernatant at 24 hours, relative to DMSO, FIG. 9B): increased production
production of IL-2 (RPMI-8226 target cells [2]; Example 7: supernatant at 24 hours, relative to DMSO, FIG. 9C): increased production
production of TNF-alpha (RPMI-8226 target cells [2]; Example 7: supernatant at 24 hours, relative to DMSO, FIG. 9D): increased production
cytolytic activity ([3]; Compound A 1 or 10 nM, FIG. 11A): increased cytolytic activity
cytokine production (IFN-gamma, IL-2, TNF-alpha) ([3]; FIG. 11B-D): increased
